Target: T1, hPR LBD (initial construct) (Homo sapiens, UniProt P06401)
T1 construct: gene PGR; pET3d, E. coli BL21 lysate; cloned from HOSE cell cDNA
T1 sequence (P06401 634-933): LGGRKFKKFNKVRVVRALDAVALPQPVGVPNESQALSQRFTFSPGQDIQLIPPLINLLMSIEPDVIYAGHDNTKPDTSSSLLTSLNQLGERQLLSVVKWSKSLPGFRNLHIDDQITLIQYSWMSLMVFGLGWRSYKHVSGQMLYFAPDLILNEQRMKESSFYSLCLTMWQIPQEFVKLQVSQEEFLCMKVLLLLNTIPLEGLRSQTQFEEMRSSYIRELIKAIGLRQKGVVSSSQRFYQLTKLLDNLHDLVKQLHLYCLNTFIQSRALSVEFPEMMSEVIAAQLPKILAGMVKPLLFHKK
Assay: competitive radioligand binding, charcoal separation, bacterial lysate
Settings: 1 nM [3H]-progesterone, 16 h, 4 °C; relative binding affinity compared to progesterone

SMILES: CC(=O)[C@H]1CC[C@H]2[C@@H]3CC[C@H]4CC(=O)CC[C@]4(C)[C@H]3CC[C@]12C [DHP, 5α-dihydroprogesterone]
- RBA: relative binding affinity (RBA) of DHP compared to progesterone measured by competitive binding assays
